For test [1], the target named is CMY-37 (Citrobacter freundii). Briefly: β-Lactamase inhibitory activity, nitrocefin hydrolysis. Format: biochemical.
For test [2], the target named is T1, SHV-1 (Klebsiella pneumoniae, UniProt P0AD64).
T1 construct: made in house; host or cells: E. coli
The test is described as above. Format: biochemical.

For test [3], the target named is T2, KPC-2 (Klebsiella pneumoniae, UniProt Q9F663).
T2 construct: made in house; host or cells: E. coli
The test is described as above. Format: biochemical. The settings on record: class (A); 30 min pre-incubation.

Test [4] deals with T3, OXA-11 (Pseudomonas aeruginosa, UniProt Q06778).
T3 construct: made in house; host or cells: E. coli
Described as above. Format: biochemical.

Test [5] addresses T4, OXA-1 (Escherichia coli, UniProt P13661).
T4 construct: made in house; host or cells: E. coli
The test is described as above. It counts as biochemical. The settings on record: class (D); 30 min pre-incubation.

In test [6] the target is T5, OXA-48 (Klebsiella pneumoniae, UniProt Q6XEC0).
T5 construct: made in house; host or cells: E. coli
Described as above. Format: biochemical. The settings on record: class (D); 30 min pre-incubation.

For test [7], the target named is T6, TEM-1 (Escherichia coli, UniProt P62593).
T6 construct: made in house; host or cells: E. coli
The test is described as above. It counts as biochemical. The settings on record: class (A); 30 min pre-incubation.

Test [8] has as its system E. coli. The test can be described thus: MIC of compounds alone, broth microdilution. Format: cell-based. The settings on record: Escherichia coli, ECO 190317, beta-lactamases TEM-1, SHV-12, CTX-M-15 OXA-1, read-out: MIC. The method, then: (§1) Method 2: MIC of Compounds and Synergy with Ceftazidime Against Bacterial Isolates (Table 2 and 3)
(§2) Compounds of the present invention were assessed against genotyped bacterial strains alone or in combination with the β-lactam ceftazidime. In the assays, MICs of said compounds, or of ceftazidime at fixed concentrations of said compounds were determined by the broth microdilution method according to the Clinical Laboratory Standards Institute (CLSI—M7-A7). Briefly, compounds alone according to the invention were prepared in DMSO and spotted (2 μL each) on sterile polystyrene plates (Corning, 3788). Compounds and ceftazidime dilutions were prepared in DMSO and spotted (1 μL each) on sterile polystyrene plates (Corning, 3788). Log phase bacterial suspensions were adjusted to a final density of 5×10^5 cfu/mL in cation-adjusted Mueller-Hinton broth (Beckton-Dickinson) and added to each well (98 μL). Microplates were incubated for 16-20 h at 35° C. in ambient air. The MIC of the compounds was defined as the lowest concentration of said compounds that prevented bacterial growth as read by visual inspection. The MIC of ceftazidime at each compound concentration was defined as the lowest concentration of ceftazidime that prevented bacterial growth as read by visual inspection.

For test [9], the target named is T7, CTX-M-15 (Escherichia coli, UniProt Q9EXV5).
T7 construct: made in house; host or cells: E. coli
Briefly: β-Lactamase inhibitory activity, nitrocefin hydrolysis. It counts as biochemical. Particulars: class (A); 30 min pre-incubation.

For test [10], the target named is T8, OXA-15 (Pseudomonas aeruginosa, UniProt Q51574).
T8 construct: made in house; host or cells: E. coli
Described as above. Format: biochemical.

Test [11] concerns the target AmpC (PAE) (Pseudomonas aeruginosa, UniProt P24735). The test can be described thus: biochemical. Here is the method: (§3) Method 1: β-Lactamase Inhibitory Activity, Determination of IC50 (Table 1)
(§4) Enzyme activity was monitored by spectrophotometric measurement of nitrocefin (NCF-TOKU-E, N005) hydrolysis at 485 nm, at room temperature and in assay buffer A: 100 mM Phosphate pH7, 2% glycerol and 0.1 mg/mL Bovine serum albumin (Sigma, B4287). Enzymes were cloned in E. coli expression vector, expressed and purified in house using classical procedures. To a transparent polystyrene plate (Corning, 3628) were added in each well 5 μL DMSO or inhibitor dilutions in DMSO and 80 μL enzyme in buffer A. Plates were immediately read at 485 nm in a microplate spectrophotometer (BioTek, PowerWave HT) to enable background subtraction. After 30 min of pre-incubation at room temperature, 15 μL of NCF (200 μM final) were finally added in each well. Final enzyme concentrations were 0.1 nM (TEM-1), 0.075 nM (SHV-1), 0.4 nM (CTX-M-15), 1 nM (KPC-2), 0.2 nM (P99 AmpC), 0.2 nM (CMY-37), 0.4 nM (AmpC P. aeruginosa), 0.2 nM (OXA-1), 1.2 nM (OXA-11), 0.4 nM (OXA-15) and 0.3 nM (OXA-48). After 20 min incubation at room temperature, plates were once again read at 485 nm. Enzyme activity was obtained by subtracting the final signal by the background, and was converted to enzyme inhibition using non inhibited wells. IC50 curves were fitted to a classical Langmuir equilibrium model with Hill slope using XLFIT (IDBS).

The target of test [12] is AmpC (P99) (Enterobacter cloacae, UniProt P05364). Briefly: biochemical. The method, then: as §3, §4
Test [13] concerns K. pneumoniae. Briefly: Synergy with ceftazidime: MIC of ceftazidime at fixed concentration of compound. It counts as cell-based. The settings on record: Klebsiella pneumoniae, read-out: MIC of CAZ + compound (4 μg/mL), KPN 6299; beta-lactamases TEM-1, SHV-11 OXA-163. Here is the method: as §1, §2
Test [14] deals with E. cloacae. The description is as above. It counts as cell-based. The settings on record: Enterobacter cloacae, ECL P99; beta-lactamases AmpC; read-out: MIC of CAZ + compound (4 μg/mL). The method, then: as §1, §2
The subject of test [15] is K. pneumoniae. Briefly: MIC of compounds alone, broth microdilution. It counts as cell-based. The settings on record: Klebsiella pneumoniae, alone; KPN 6299; beta-lactamases TEM-1, SHV-11 OXA-163; read-out: MIC. Here is the method:
as §1, §2

Test [16] has as its system E. cloacae. The test can be described thus: MIC of compounds alone, broth microdilution. Format: cell-based. Particulars: Enterobacter cloacae, ECL P99, beta-lactamases AmpC, read-out: MIC. The method, then:
as §1, §2

Each structure is given as a SMILES string. Like-named read-outs stand apart in the source and are kept apart here. Where only a bound is given, the exact number is not on record here.

Take `O=C(O)C(F)(F)F.O=C1N2C[C@H](c3scnc3[C@H]2c2nnc[nH]2)N1OS(=O)(=O)[O-].[Na+]` (relative stereo) [Example 3, Sodium and 2,2,2-trifluoroacetate [trans-7-(4H-1,2,4-triazol-4-ium-3-yl)-9-oxo-3-thia-5,8,10-triaza-tricyclo[6.2.1.0^2,6]undeca-2(6),4-dien-10-yl]sulfate]: the IC50 in test [1] was 30 nM; in test [2], 140 nM; in [3], 460 nM; in [4] it was 190 nM; in test [5], 1000 nM; in test [6] it was 6.8 nM. For the same compound, the IC50 was 46 nM in test [7]; 28 nM in test [9]; 1100 nM in test [10]; 570 nM in test [11]; 13 nM in test [12]. Also, the MIC in [8] came out at 16 µg/mL.

With `O=C1N2C[C@H](c3scnc3[C@H]2c2ncno2)N1OS(=O)(=O)[O-].[Na+]` (relative stereo) [Example 4, Sodium [trans-7-(1,2,4-oxadiazol-5-yl)-9-oxo-3-thia-5,8,10-triaza-tricyclo[6.2.1.0^2,6]undeca-2(6),4-dien-10-yl]sulfate], the IC50 is 3.4 nM in [1] (class (C), 30 min pre-incubation, read-out: IC50 β-lactamase CMY-37); 1.4 nM in [2]; 3.2 nM in [3]; 6.5 nM in [4]; 170 nM in [5]; 0.34 nM in test [6]. In addition, the IC50 in test [7] stood at 1.1 nM; in test [9], 0.64 nM; in test [10], 19 nM; in test [11], 64 nM; in [12], 1.1 nM. In addition, the MIC in test [13] was 2 µg/mL; in test [14], 2 µg/mL; in test [15], > 32 µg/mL; in test [16] it was 32 µg/mL; in [8], 16 µg/mL.
